ChEMBL document CHEMBL5500370, “Discovery of potent and novel dual NAMPT/BRD4 inhibitors for efficient treatment of hepatocellular carcinoma” (Eur J Med Chem, 2024)
Active and inactive are the calls of the source. No cut-off for these calls is given here.

How the values were obtained:
[1] = target: T1, Bromodomain-containing protein 4 (Homo sapiens, UniProt O60885); assay: Inhibition of BRD4 (unknown origin) incubated for 120 mins by TR-FRET assay
Hep 3B2 [2] = assay: Antiproliferative activity against NMN-treated human Hep3B cells incubated for 120 hrs by MTT assay; assay type: functional, cell-based
Hep 3B2 [3] = assay: Antiproliferative activity against NMN/NAMN-treated human Hep3B cells incubated for 120 hrs by MTT assay; assay type: functional, cell-based
HCCLM3 [4] = assay: Antiproliferative activity against NAMN-treated human HCCLM3 cells incubated for 120 hrs by MTT assay; assay type: functional, cell-based
HCCLM3 [5] = assay: Antiproliferative activity against NMN/NAMN-treated human HCCLM3 cells incubated for 120 hrs by MTT assay; assay type: functional, cell-based
[6] = target: Bromodomain-containing protein 2 (Homo sapiens, UniProt P25440); assay: Inhibition of BRD2 BD1/2 (unknown origin) incubated for 120 mins by TR-FRET assay
Sequence of Bromodomain-containing protein 2 (P25440 whole entry): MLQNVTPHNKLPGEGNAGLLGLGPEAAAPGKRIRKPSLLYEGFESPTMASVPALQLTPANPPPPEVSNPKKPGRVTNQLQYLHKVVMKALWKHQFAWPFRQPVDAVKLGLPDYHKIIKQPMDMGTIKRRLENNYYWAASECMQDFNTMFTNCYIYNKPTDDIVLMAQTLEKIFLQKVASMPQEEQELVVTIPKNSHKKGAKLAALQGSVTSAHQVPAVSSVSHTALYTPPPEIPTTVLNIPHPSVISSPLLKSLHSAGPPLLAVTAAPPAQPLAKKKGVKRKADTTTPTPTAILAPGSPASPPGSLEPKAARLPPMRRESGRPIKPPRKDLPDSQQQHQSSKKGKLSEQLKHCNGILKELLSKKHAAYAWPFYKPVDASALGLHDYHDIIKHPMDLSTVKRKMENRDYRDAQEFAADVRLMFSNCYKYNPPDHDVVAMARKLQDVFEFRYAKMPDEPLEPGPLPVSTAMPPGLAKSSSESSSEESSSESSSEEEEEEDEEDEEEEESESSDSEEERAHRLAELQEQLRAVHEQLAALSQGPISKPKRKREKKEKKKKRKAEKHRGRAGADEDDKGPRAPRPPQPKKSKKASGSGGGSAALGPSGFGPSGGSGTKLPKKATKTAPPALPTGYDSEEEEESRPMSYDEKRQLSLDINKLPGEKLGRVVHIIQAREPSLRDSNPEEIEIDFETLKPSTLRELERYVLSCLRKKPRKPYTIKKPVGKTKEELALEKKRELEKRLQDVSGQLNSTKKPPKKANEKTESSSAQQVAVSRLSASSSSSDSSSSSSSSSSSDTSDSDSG

[7] = target: T1, Bromodomain-containing protein 4; assay: Inhibition of BRD4 BD1/2 (unknown origin) incubated for 120 mins by TR-FRET assay
[8] = target: T1, Bromodomain-containing protein 4; assay: Inhibition of BRD4 BD1 (unknown origin) incubated for 120 mins by TR-FRET assay
[9] = target: T1, Bromodomain-containing protein 4; assay: Inhibition of BRD4 BD2 (unknown origin) incubated for 120 mins by TR-FRET assay
[10] = target: T1, Bromodomain-containing protein 4; assay: Inhibition of BRD4 in human Hep3B cells assessed as decrease in c-Myc level at 1 to 10 uM measured after 72 hrs by immunoblot analysis; assay type: cell-based; settings: dose 1-10 µM
[11] = target: T1, Bromodomain-containing protein 4; assay: Inhibition of BRD4 in human Hep3B cells assessed as decrease in YAP1 level at 1 to 10 uM measured after 72 hrs by immunoblot analysis; assay type: cell-based; settings: dose 1-10 µM
Hep 3B2 [12] = assay: Downregulation of NAPRT level in human Hep3B cells at 1 to 10 uM measured after 72 hrs by immunoblot analysis; assay type: functional, cell-based; settings: dose 1-10 µM
Hep 3B2 [13] = assay: Downregulation of NAMPT level in human Hep3B cells at 1 to 10 uM measured after 72 hrs by immunoblot analysis; assay type: functional, cell-based; settings: dose 1-10 µM
[14] = target: Nicotinamide phosphoribosyltransferase (Homo sapiens, UniProt P43490); assay: Inhibition of NAMPT in human Hep3B cells assessed as decrease in NAD+ level at 10 uM measured after 72 hrs by WST-8 assay; assay type: cell-based
Sequence of Nicotinamide phosphoribosyltransferase (P43490 whole entry, looked up): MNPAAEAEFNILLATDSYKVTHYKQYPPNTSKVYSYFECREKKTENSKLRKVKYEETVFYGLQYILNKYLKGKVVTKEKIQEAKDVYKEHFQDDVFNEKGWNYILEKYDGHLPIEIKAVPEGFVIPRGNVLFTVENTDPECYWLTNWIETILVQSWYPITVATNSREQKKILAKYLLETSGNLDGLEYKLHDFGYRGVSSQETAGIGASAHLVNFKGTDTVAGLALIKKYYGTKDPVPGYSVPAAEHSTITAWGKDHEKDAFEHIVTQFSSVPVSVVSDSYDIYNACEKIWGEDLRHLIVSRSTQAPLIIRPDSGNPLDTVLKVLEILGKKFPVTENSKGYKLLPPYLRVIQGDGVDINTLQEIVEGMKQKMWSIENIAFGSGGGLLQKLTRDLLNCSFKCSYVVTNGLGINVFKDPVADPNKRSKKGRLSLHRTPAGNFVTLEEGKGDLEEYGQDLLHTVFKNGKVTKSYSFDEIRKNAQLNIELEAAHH

Hep 3B2 [15] = assay: Induction of apoptosis in human Hep3B cells assessed as viable cells at 1 uM measured after 72 hrs by Annexin V-FITC/PI staining based flow cytometry (reference value: 94.08 %); assay type: functional; settings: read-out: Activity
Hep 3B2 [16] = assay: Induction of apoptosis in human Hep3B cells assessed as early apoptotic cells at 1 uM measured after 72 hrs by Annexin V-FITC/PI staining based flow cytometry (reference value: 2.13 %); assay type: functional
Hep 3B2 [17] = assay: Induction of apoptosis in human Hep3B cells assessed as late apoptotic cells at 1 uM measured after 72 hrs by Annexin V-FITC/PI staining based flow cytometry (reference value: 1.05 %); assay type: functional
Hep 3B2 [18] = assay: Induction of apoptosis in human Hep3B cells assessed as necrotic cells at 1 uM measured after 72 hrs by Annexin V-FITC/PI staining based flow cytometry (reference value: 2.74 %); assay type: functional
Hep 3B2 [19] = assay: Induction of apoptosis in human Hep3B cells assessed as viable cells at 5 uM measured after 72 hrs by Annexin V-FITC/PI staining based flow cytometry (reference value: 94.08 %); assay type: functional; settings: read-out: Activity
Hep 3B2 [20] = assay: Induction of apoptosis in human Hep3B cells assessed as early apoptotic cells at 5 uM measured after 72 hrs by Annexin V-FITC/PI staining based flow cytometry (reference value: 2.13 %); assay type: functional
Hep 3B2 [21] = assay: Induction of apoptosis in human Hep3B cells assessed as late apoptotic cells at 5 uM measured after 72 hrs by Annexin V-FITC/PI staining based flow cytometry (reference value: 1.05 %); assay type: functional
Hep 3B2 [22] = assay: Induction of apoptosis in human Hep3B cells assessed as viable cells at 10 uM measured after 72 hrs by Annexin V-FITC/PI staining based flow cytometry (reference value: 94.08 %); assay type: functional; settings: Homo sapiens, Hep3B, read-out: Activity
Hep 3B2 [23] = assay: Induction of apoptosis in human Hep3B cells assessed as early apoptotic cells at 10 uM measured after 72 hrs by Annexin V-FITC/PI staining based flow cytometry (reference value: 2.13 %); assay type: functional
Hep 3B2 [24] = assay: Induction of apoptosis in human Hep3B cells assessed as late apoptotic cells at 10 uM measured after 72 hrs by Annexin V-FITC/PI staining based flow cytometry (reference value: 1.05 %); assay type: functional
Hep 3B2 [25] = assay: Induction of apoptosis in human Hep3B cells assessed as necrotic cells at 10 uM measured after 72 hrs by Annexin V-FITC/PI staining based flow cytometry (reference value: 2.74 %); assay type: functional
Hep 3B2 [26] = assay: Induction of cell cycle arrest at G0/G1 phase in human Hep3B cells at 1 uM measured after 72 hrs by PI/RNase staining based flow cytometry (reference value: 56.73 %); assay type: functional
Hep 3B2 [27] = assay: Induction of cell cycle arrest at G2/M phase in human Hep3B cells at 1 uM measured after 72 hrs by PI/RNase staining based flow cytometry (reference value: 11.37 %); assay type: functional
Hep 3B2 [28] = assay: Induction of cell cycle arrest at G0/G1 phase in human Hep3B cells at 5 uM measured after 72 hrs by PI/RNase staining based flow cytometry (reference value: 56.73 %); assay type: functional
Hep 3B2 [29] = assay: Induction of cell cycle arrest at S phase in human Hep3B cells at 5 uM measured after 72 hrs by PI/RNase staining based flow cytometry (reference value: 31.90 %); assay type: functional
Hep 3B2 [30] = assay: Induction of cell cycle arrest at G0/G1 phase in human Hep3B cells at 10 uM measured after 72 hrs by PI/RNase staining based flow cytometry (reference value: 56.73 %); assay type: functional
Hep 3B2 [31] = assay: Induction of cell cycle arrest at G2/M phase in human Hep3B cells at 10 uM measured after 72 hrs by PI/RNase staining based flow cytometry (reference value: 11.37 %); assay type: functional
Hep 3B2 [32] = assay: Induction of cell cycle arrest at S phase in human Hep3B cells at 10 uM measured after 72 hrs by PI/RNase staining based flow cytometry (reference value: 31.90 %); assay type: functional
Hep 3B2 [33] = assay: Antimigratory activity in human Hep3B cells measured upto 24 hrs by wound healing assay; assay type: functional, cell-based; settings: dose 1-10 µM
Hep 3B2 [34] = assay: Antimigratory activity in human Hep3B cells measured upto 24 hrs by transwell assay; assay type: functional, cell-based; settings: dose 1-10 µM
HCCLM3 [35] = assay: Antitumor activity against human HCCLM3 cells xenografted in BALB/c nude mouse assessed as tumor growth suppression administered intraperitoneally for 27 days; assay type: functional; settings: dose 40-80 mg/kg, route ip, time 27.0 day
HCCLM3 [36] = assay: Antitumor activity against human HCCLM3 cells xenografted in BALB/c nude mouse at 80 mg/kg, ip for 27 days relative to control; assay type: functional; settings: HCCLM3, 648 h, time 27 day, read-out: TGI
[37] = Toxicity in BALB/c nude mouse xenografted with human HCCLM3 cells assessed as body weight loss at 40 to 80 mg/kg, ip for 27 days; assay type: organism-based; settings: in vivo, 648 h, dose 40-80 mg/kg, time 27 day
Hep 3B2 [38] = assay: cells; settings: Homo sapiens, Hep3B, 120 h

Cc1sc2c(c1C)C(c1ccc(Cl)cc1)=N[C@@H](CC(=O)NCCCNC(=O)/C=C/c1cccnc1)c1nnc(C)n1-2
IC50 [1]: 58 nM
Activity (Hep 3B2 [2]): inactive
Activity (Hep 3B2 [3]): inactive
Activity (HCCLM3 [4]): inactive
Activity (HCCLM3 [5]): inactive
IC50 [6]: 489 nM
IC50 [7]: 58 nM
IC50 [8]: 12 nM
IC50 [9]: 41 nM
inhibition [10]: Active
inhibition [11]: Active
Activity (Hep 3B2 [12]): Active
Activity (Hep 3B2 [13]): Active
inhibition [14]: Active
viability at 1 µM (Hep 3B2 [15]): 83.9%
Activity (Hep 3B2 [16]): 8.83%
Activity (Hep 3B2 [17]): 4.58%
Activity (Hep 3B2 [18]): 2.69%
viability at 5 µM (Hep 3B2 [19]): 74.7%
Activity (Hep 3B2 [20]): 14.49%
Activity (Hep 3B2 [21]): 6.24%
viability at 10 µM (Hep 3B2 [22]): 72.1%
Activity (Hep 3B2 [23]): 18.89%
Activity (Hep 3B2 [24]): 6.56%
Activity (Hep 3B2 [25]): 2.43%
Activity (Hep 3B2 [26]): 66.06%
Activity (Hep 3B2 [27]): 9.76%
Activity (Hep 3B2 [28]): 71.08%
Activity (Hep 3B2 [29]): 20.57%
Activity (Hep 3B2 [30]): 76.25%
Activity (Hep 3B2 [31]): 5.54%
Activity (Hep 3B2 [32]): 18.21%
Activity (Hep 3B2 [33]): Dose-Dependent Effect
Activity (Hep 3B2 [34]): Dose-Dependent Effect
Activity (HCCLM3 [35]): Dose-Dependent Effect
inhibition in vivo at 80 mg/kg (HCCLM3 [36]): 58.2%
Activity [37]: Non-Toxic
IC50 (Hep 3B2 [38]): 2370 nM
